# Entries after “also recorded” stand apart in the source; their conditions may differ.
# Columns and labels:
# [1] = tested on: histamine evoked asthma in conscious guinea-pigs; experiment: Protection against histamine-evoked asthma by inhaled drug in conscious guinea pigs; assay type: in vivo, guinea pigs (Dunkin-Hartley strain); conditions: for Latency: no collapse over 360 sec recorded as 360
# Method: (§1) Test methods: Guinea pigs (Dunkin-Hartley strain, 200±30 g) were fasted overnight but given water ad libidum. The animals were restrained individually in a glass chamber and exposed to aerosol histamine generated by a nebulizer from a 0.2% aqueous solution of histamine under constant pressure at dose of 0.5 ml/min for a period of 15 sec. The animal was removed from the chamber, and its behavior was monitored. Assign of collapse and the latency time from exposure to collapse were recorded. Only the animals with latency time less than 120 sec, as an indication of sensitive to histamine, were chosen for later experiments. The animals chosen were allowed to recover completely by resting for 24 hours before experiments. R-bambuterol and racemic bambuterol hydrochloride were dissolved in saline and nublized in a nebulizer.
# Study of dose-response: One hours before the exposure to aerosol histamine, animals were randomized into groups (n=8, equal sex), and Nublized R-bambuterol hydrochloride or bambuterol hydrochloride in doses of 63, 126, 252 and 504 μg/kg, and vehicle control were inhaled by the animals via a mouth and nasal mask. The numbers of collapsed animal as a result of asthmatic reaction to aerosol histamine were counted, and the latency times were recorded. Both of these parameters were used as quantitative measurements of the protective effects of the treatments on bronchospasm evoked by aerosol histamine.
# [2] = tested on: histamine evoked asthma in conscious guinea-pigs; experiment: Histamine-evoked asthma in conscious guinea pigs after oral administration; assay type: in vivo, guinea pigs (Dunkin-Hartley strain); conditions: for Latency: no collapse over 360 sec recorded as 360
# Method: as §1
# Comparison of the anti-asthma effects of R-bambuterol (R-BM) and bambuterol (RS-BM) administered by oral and by inhalation in conscious guinea pigs. Test methods: same as Example 1.
# Study of dose-response: Same as Example 1, except the following: four hours before the exposure to aerosol histamine, animals were randomized into groups (n=8, equal male and female), and given R-bambuterol hydrochloride or racemic bambuterol hydrochloride in doses of 1.0, 2.0, 4.0 and 8.0 mg/kg, and vehicle control, orally via a stomach tube.
# [3] = tested on: histamine evoked asthma in conscious guinea-pigs; experiment: Time course of anti-asthma effects after oral administration or inhalation; assay type: in vivo; conditions: for No. of collapsed: n=8
# Method: The time course of the anti-asthma effects of R-bambuterol (R-BM) and bambuterol (RS-BM) after administered by oral and by inhalation. Test Methods: same as example 1 except the following:
# For orally administration, R-Bambuterol hydrochloride or racemic bambuterol hydrochloride at 4 and 8 mg/kg, and vehicle alone, were administered to the guinea pigs orally via a stomach tube. Exposure of treated animals to aerosol histamine (as above) was done at 1, 4 and 12 hours after R-bambuterol or bambuterol treatment. For each experimental group, there were a total of 8 animals with equal number in sex, and no repeated exposure was made for individual experimental animals.
# For inhalation, R-Bambuterol hydrochloride or racemic bambuterol hydrochloride at 0.252 and 0.504 mg/kg, and vehicle alone, were nebulized and administered to the guinea pigs by inhalation. Exposure of drug treated animals to aerosol histamine (as above) was done at 1,4 and 12 hours after drug treatment. For each experimental group, there were a total of 8 animals with equal number in sex, and no repeated exposure was made for individual experimental animals.
# [4] = tested on: OVA evoked asthma in sensitized guinea pigs; experiment: Airway resistance and dynamic pulmonary compliance after inhalation in OVA sensitized guinea pigs; assay type: in vivo; conditions: for protection against asthma attack by antigen (OVA) challenge: pretreatment by inhalation about three minutes before OVA challenge; for change of Raw and Cdyn at resting state after inhalation: before OVA challenge
# Method: Sensitization of animals: Ovalbumin (10 μg/ml) was injected into guinea-pigs subcutaneously and coincidentally with an intraperitoneal injection of B. pertussis vaccine. Identical injection of ovalbumin and adjuvant were made day 15 and 21 days later. On day 28th the animals were examined and used for studies.
# Test Methods: The sensitized guinea pigs wer anaethetized. A cannula was inserted into the trachea. A plueral cannula was inserted into pleural space through the chest wall. Airway resistance (Raw) and dynamic pulmonary compliance (Cdyn) were measured by using the signals of intraplueral pressure, airflow and tidal volume.
# The animals were restreined in closed chamber and nebulized R-bambuterol or S-bambuterol were inhaled at the dose of 126 μg/kg. After three minutes conditioning, the animals were then challenged with nebulized OVA to evoke asthma. Airway resistance (Raw) and dynamic pulmonary compliance (Cdyn) were measured before and after evoking asthma.
# [5] = tested on: OVA evoked asthma in sensitized guinea-pigs; experiment: Relief of antigen-evoked asthma by inhalation after challenge in OVA sensitized guinea-pigs; assay type: in vivo; conditions: nebulized drug inhaled after antigen challenge
# Excerpt: In an embodiment of the invention, the ovalbumin (OVA) sensitized guinea-pigs were first challenged with nebulized antigen to evoke asthma, then the animals were allowed to inhale nebulized R-bambuterol or bambuterol. […] In a further embodiment of the invention, the sensitized guinea-pigs were first pretreated with nebulized R-bambuterol or bambuterol by inhalation. After three minutes, the same animals were challenged with nebulized antigen. […] The fast onset of action in the invention can also not be explained by Svenssion's in vitro metabolic study noted above that the dominate product is mono-carbamate bambuterol and litter terbutaline at initial phase., while the major amount of terbutaline will be formed at much later phase. (Svensson et al., 1988).
# [6] = cited from earlier work
# [7] = tested on: asthma evoked by intravenously administrated histamine; conditions: anesthetized guinea pigs, intravenous histamine; cited from earlier work
# [8] = tested on: bronchial and lung preparations; conditions: in vitro; cited from earlier work
# [9] = tested on: OVA evoked asthma in sensitized guinea pigs; experiment: Airway resistance in OVA asthma attack after oral administration in sensitized guinea pigs; assay type: in vivo
# Method: Sensitized animals were divided into Saline (control), S-Bambuterol and R-bambuterol groups. R or S bambuterol were administered by both inhalation by oral ([…]). Airway resistance (Raw) and dynamic pulmonary compliance (Cdyn) were measured at resting or during astham challenge by OVA. Animal preparation and experimental methods were similar as described previously.
# [10] = tested on: OVA evoked asthma in sensitized guinea pigs; experiment: Drug tolerance to R-bambuterol induced by pretreatment; assay type: in vivo
# Method: Animal sensitization and experiment methods were similar as discribed above. Briefly, animals were divided into three groups. R-bambuterol (8 mg/kg) or S-bamburerol (8 mg/kg) or 0.9% NaCL (control) were given orally in equal volum to each group seperatedly once a day for 7 consecutive days in order to induce drug tolerances. The Protection effects of same dosage of R-bambuterol against asthma attack induced by OVA challenge were evaluated by the changes of Airway resistance (Raw) and dynamic pulmonary compliance (Cdyn).
# [11] = inhale, at maximum effective dose (R-BM 0.252, RS-BM 0.505 mg/Kg)
# [12] = oral, at maximum effective dose (R-BM 4.0, RS-BM 8.0 mg/Kg)
# [13] = inhalation (R-BM 252 μg/kg, RS-BM 504 μg/kg), histamine 60 min after
# [14] = inhalation (R-BM 252 μg/kg, RS-BM 504 μg/kg), histamine 240 min after
# [15] = inhalation (R-BM 252 μg/kg, RS-BM 504 μg/kg), histamine 720 min after
# [16] = oral (R-BM 4.0 mg/kg, RS-BM 8.0 mg/kg), histamine 60 min after
# [17] = oral (R-BM 4.0 mg/kg, RS-BM 8.0 mg/kg), histamine 240 min after
# [18] = oral (R-BM 4.0 mg/kg, RS-BM 8.0 mg/kg), histamine 720 min after
# [19] = pretreated with the labelled substance 8 mg/kg orally once a day 7 days, then R-bambuterol, OVA challenge, n=8
compound,measurement,setting,value
CN(C)C(=O)Oc1cc(OC(=O)N(C)C)cc(C(O)CNC(C)(C)C)c1 (racemic) [bambuterol],dosage required for maximum anti-asthmatic effects (complete protection against histamine) by inhalation,[1]; inhalation,512 µg/kg
same,maximum effective dose required by inhalation,[1]; inhale,Inhale (0.505) mg/Kg
same,Animal collapsed (%),[1]; [11],0%
same,Animal collapsed (number/group),[1]; [11],0/8
same,Latency,[1]; inhaled 63 μg/Kg,42 ± 9 s
same,Latency,[1]; inhaled 126 μg/Kg,85 ± 112 s
same,Latency,[1]; inhaled 252 μg/Kg,209 ± 162 s
same,Latency,[1]; inhaled 504 μg/Kg,360 ± 0 s
same,Oral:Inhale ratio of maximum effective dose,[1]; oral dose vs inhaled dose for maximum anti-asthmatic effect,16
same,maximum effective dose required by oral (none of the histamine challenged animals collapsed),[2]; oral,8 mg/kg
same,Latency,[2]; oral 1.0 mg/Kg,151 ± 130 s
same,Latency,[2]; oral 2.0 mg/Kg,227 ± 143 s
same,Latency,[2]; oral 4.0 mg/Kg,299 ± 113 s
same,Latency,[2]; oral 8.0 mg/Kg,360 ± 0 s
same,Animal collapsed (%),[2]; [12],0%
same,Animal collapsed (number/group),[2]; [12],0/8
same,maximum effective dose required by oral (none of the histamine challenged animals collapsed),"[2]; oral, listed as RS-BM",Oral (8.0 ) mg/Kg
same,Latency,[3]; [13],360 ± 0 s
same,No. of collapsed,[3]; [13],0/8
same,Latency,[3]; [14],360 ± 0 s
same,No. of collapsed,[3]; [14],0/8
same,Latency,[3]; [15],287 ± 136 s
same,No. of collapsed,[3]; [15],2/8
same,maximum anti-asthmatic effects by inhalation faster than by oral administration,[3]; inhalation vs oral,4 h
same,Latency,[3]; [16],260 ± 131 s
same,No. of collapsed,[3]; [16],3/8
same,Latency,[3]; [17],360 ± 0 s
same,No. of collapsed,[3]; [17],0/8
same,Latency,[3]; [18],360 ± 0 s
same,No. of collapsed,[3]; [18],0/8
same,protection against asthma attack by antigen (OVA) challenge,[4],significant anti-asthma effects
same,relief of asthmatic symptoms after inhalation,[5],immediately relieved within matter of tenths of seconds to a couple of minutes
same,duration of blood concentration of active parent drug,[6]; after an oral administration,up to 24 hours
same,concentration in lungs relative to plasma,[6]; after oral administration (Svensson 1991),~20 times
same,amount needed relative to terbutaline to reach the same concentration of terbutaline in blood,"[6]; given orally, on molar basis",5 times
same,tmax of terbutaline released from bambuterol later than tmax of terbutaline taken orally,[6]; oral (Olsson et al. 1984),four
same,time of maximum concentration (tmax),[6]; oral,around one
same,bronchospasmolytic effects when inhaled,[7],inactive and lack bronchospasmolytic effects
same,relaxation effects,[8],no relaxation effects
CN(C)C(=O)Oc1cc(OC(=O)N(C)C)cc([C@H](O)CNC(C)(C)C)c1 [S-bambuterol],change of Raw and Cdyn at resting state after inhalation,[4],increasing airway resistance and reducing pulmonary dynamic compliance; also recorded: significant increase in airway resistance (Raw) and decrease in pulmonary compliance (Cdyn)
same,change of Raw and Cdyn at resting state after inhalation,[4]; listed as S-Bambuterol,significant increase in Raw and decrease in Cdyn
same,collapse induced by inhalation per se,"[4]; inhalation, sensitized guinea pigs",induced a collapes of a guinea pig
same,protection against asthma attack by antigen (OVA) challenge,[4],no such protection at all; also recorded: inactive in protectoin against asthma attack
same,change of Raw and Cdyn during the asthma attack comparing to control,[4]; treated by inhalation,greater increase in airway resistance (Raw) and decrease in pulmonary compliance (Cdyn)
same,change of Raw and Cdyn in resting state,[9]; given orally,little changes in either Raw and Cdyn
same,change in Raw / asthmatic response during the asthmatic attack by OVA,[9]; oral,significantly enhance the asthmatic response to OVA challenge than control; also recorded: significant increases in Raw; also recorded: significantly worsen the asthmatic response
same,Changes in Airway resistance (Raw) at 4th min after OVA challenge,"[9]; pretreated oral 4 m/kg, n=8",2.40 ± 0.96
same,Changes in Airway resistance (Raw) at 5th min after OVA challenge,"[9]; pretreated oral 4 m/kg, n=8",2.41 ± 0.98
same,protection effects of R-bambuterol against asthmatic attack after pretreatment,[10]; group pretreated with the labelled substance,significantly reduced
same,Changes in Cdyn During asthma,[10]; [19],−0.25 ± 0.10
same,Changes in Raw During asthma,[10]; [19],+0.36 ± 0.23

# Reference: patent US20120082626A1, “USE OF R-BAMBUTEROL AS INHALED MEDICAMENT AND COMBINATION THERAPIES FOR TREATMENT OF RESPIRATORY DISORDERS” (priority 2009, published 2012)
